Measurements as given in patent US20210032139A1, “REGULATING A MICROENVIRONMENT OF ANAEROBIC GRANULAR SLUDGE TO PROMOTE ANAEROBIC DIGESTION AND DELAY CALCIFICATION” (GuangXi University, priority 2019, published 2021).

Tests used:
[1] = tested on: anaerobic granular sludge; experiment: Laboratory anaerobic serum bottle reactor treating papermaking wastewater with daily C8-HSL addition; settings: after three months; for Methanobactium, Methanosaeta and Methanosarcina in the microbial community: sequencing analysis
Description: First, 50 mL of anaerobic granular sludge and 200 mL of papermaking wastewater collected from a paper mill were placed in a 250 mL anaerobic serum bottle. The bioreactor used in this example involves a 24-hour operation cycle, which has a reaction stage (23.5 h) and a sludge settling stage (0.5 h).
Next, 50 mL of supernatant is removed from the top of the anaerobic serum bottle, and the same volume of fresh papermaking wastewater with N-octyl […] (C8-HSL) is injected into the bottle through a long syringe at the end of the cycle. The injected wastewater is then domesticated for about a week.
2 μg C8-HSL standards are added to the reactor every day after domestication.
The reactor is treated in a constant temperature magnetic stirring water bath at 38° C.
Water samples are collected at the beginning and end of each cycle from the reactor, and sludge samples are also collected at the end of each cycle from the reactor. After a total of three months of operation, sludge biomass is collected by centrifugation at 5000×g for 10 minutes and then frozen for further sequencing analysis. […]

[2] = tested on: anaerobic granular sludge; experiment: Paper mill anaerobic reactor (1500 m^3) with C8-HSL added to papermaking wastewater at the regulating tank outlet
Description: In an anaerobic reactor of a paper mill, the reactor is 8 m high and its working volume is 1500 m^3. The papermaking wastewater with high calcium content enters into a regulating tank. The regulating tank has a volume of 1000 m^3. When it is detected that the proportion of microorganism content in the anaerobic granular sludge in the anaerobic reactor is less than 0.6, C8-HSL standard of AHLs type signal molecule is added to the paper-making wastewater at the outlet of the regulating tank end, the quantity of C8-HSL standard is 50 mg per cubic meter of papermaking wastewater. The time interval of signal molecule input is controlled by time controller. The regulating pool is equipped with liquid level transmitter to detect the liquid level to prevent the reactor feed pump from idling. The wastewater that is modulated in the regulating tank is injected into the anaerobic reactor through the wastewater feed pump and treated according to the conventional anaerobic way. In the treatment process, water samples are collected once a month, and sludge samples are collected once half a year. Sludge biomass is collected by centrifugation at 5000×g for 10 minutes, and then frozen for further sequencing analysis.

[3] = 2 μg C8-HSL added every day, 38° C.
[4] = 20 μg C8-HSL added every day, 38° C.
[5] = 30 μg C8-HSL added every day (150 mg/m^3)
[6] = 30 μg C8-HSL added every day (150 mg/m^3), 38° C.
[7] = 50 mg C8-HSL per cubic meter of papermaking wastewater, paper mill, after five years

increase of activity of coenzyme F420 compared with the reactor without exogenous signal molecules ([1]; 2 μg C8-HSL added every day): 33.5% | content of coenzyme F420 [1, 3]: 0.18 μmol/gVSS | increase of activity of coenzyme F420 compared with the reactor without exogenous signal molecules ([1]; 20 μg C8-HSL added every day): 48.1% | content of coenzyme F420 [1, 4]: 0.20 μmol/gVSS | increase of activity of coenzyme F420 compared with the reactor of adding 100 mg signal molecule per cubic meter of papermaking wastewater [1, 5]: 1.5% | increase of activity of coenzyme F420 compared with the reactor without exogenous signal molecules [1, 5]: 50.38% | content of coenzyme F420 [1, 6]: 0.203 μmol/gVSS | content of coenzyme F420 [2, 7]: 0.19 μmol/gVSS
SMILES: CCCCCCCC(=O)N[C@H]1CCOC1=O [C8-HSL, N-octyl hypererine lactone]
increase of removal rate of COD compared with the reactor without exogenous signal molecules ([1]; 2 μg C8-HSL added every day): 10.8% | increase of specific methanogenic activity (SMA) compared with the reactor without exogenous signal molecules ([1]; 2 μg C8-HSL added every day): 32.4% | chemical oxygen demand (COD) removal rate [1, 3]: 75% | specific methanogenic activity (SMA) [1, 3]: 25 mL/(gVSS·h) | Methanobactium, Methanosaeta and Methanosarcina in the microbial community ([1]; 2 μg C8-HSL added every day): enhanced | increase of removal rate of COD compared with the reactor without exogenous signal molecules ([1]; 20 μg C8-HSL added every day): 18.2% | increase of specific methanogenic activity (SMA) compared with the reactor without exogenous signal molecules ([1]; 20 μg C8-HSL added every day): 43% | COD removal rate [1, 4]: 80% | specific methanogenic activity (SMA) [1, 4]: 27 mL/(gVSS·h) | Methanobactium, Methanosaeta and Methanosarcina in the microbial community ([1]; 20 μg C8-HSL added every day): enhanced | increase of removal rate of COD compared with the reactor of adding 100 mg signal molecule per cubic meter of papermaking wastewater [1, 5]: 0.375% | increase of removal rate of COD compared with the reactor without exogenous signal molecules [1, 5]: 18.63% | increase of specific methanogenic activity (SMA) compared with the reactor of adding 100 mg signal molecule per cubic meter of papermaking wastewater [1, 5]: 1.85% | increase of specific methanogenic activity (SMA) compared with the reactor without exogenous signal molecules [1, 5]: 45.66% | COD removal rate [1, 6]: 80.3% | specific methanogenic activity (SMA) [1, 6]: 27.5 mL/(gVSS·h) | Methanobactium, Methanosaeta and Methanosarcina in the microbial community [1, 5]: enhanced | COD removal rate [2, 7]: 75% | specific methanogenic activity (SMA) [2, 7]: 24 mL/(gVSS·h) | calcification of the sludge ([2]; 50 mg C8-HSL per cubic meter of papermaking wastewater, paper mill, after five years, without C8-HSL obvious calcification for up to two years): has not been calcified | Methanobactium, Methanosaeta and Methanosarcina in the microbial community ([2]; 50 mg C8-HSL per cubic meter of papermaking wastewater, paper mill, sequencing analysis): enhanced | effect on delaying calcification ([2]; paper mill reactor, compared with before signal molecule addition): obvious
